Test results reported in patent publication US8431563B2 (priority 2010, dated 2013).
Where two headings read alike, the source gives them in different places.

Legend:
[1] = molecular target: T1, interaction between glucokinase (GK) and glucokinase regulatory protein (GKRP) (Homo sapiens, UniProt Q14397); assay: biochemical; assay type: binding
T1 sequence (Q14397 1-625): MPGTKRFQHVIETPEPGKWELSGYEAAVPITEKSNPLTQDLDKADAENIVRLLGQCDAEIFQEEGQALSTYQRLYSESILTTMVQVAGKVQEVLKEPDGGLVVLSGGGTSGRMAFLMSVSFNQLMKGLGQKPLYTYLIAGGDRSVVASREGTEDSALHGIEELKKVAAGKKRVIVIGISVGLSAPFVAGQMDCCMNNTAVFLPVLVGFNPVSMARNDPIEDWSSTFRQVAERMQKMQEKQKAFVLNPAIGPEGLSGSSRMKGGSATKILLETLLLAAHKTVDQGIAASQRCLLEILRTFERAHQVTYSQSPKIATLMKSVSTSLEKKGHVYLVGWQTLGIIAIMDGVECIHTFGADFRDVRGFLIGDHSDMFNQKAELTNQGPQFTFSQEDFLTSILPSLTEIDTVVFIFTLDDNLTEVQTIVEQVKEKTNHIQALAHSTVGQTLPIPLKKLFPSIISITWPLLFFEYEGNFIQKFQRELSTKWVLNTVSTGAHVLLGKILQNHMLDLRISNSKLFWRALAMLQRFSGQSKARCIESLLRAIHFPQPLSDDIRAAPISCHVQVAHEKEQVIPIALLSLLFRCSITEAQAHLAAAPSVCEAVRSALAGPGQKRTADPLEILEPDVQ
Method: GK-GKRP Binding Assay Protocol
This assay is used to directly measure the interaction between glucokinase (GK) and glucokinase regulatory protein (GKRP). Begin by preparing the following solutions. Assay Buffer: 20 mM Tris, pH 7.5/0.05% BSA/1 mM DTT/1 μM sorbitol-6-phosphate. […] Combine the following reagents in a white 96-well half area plate. Pipette 14 μl of the diluted avi-tagged GKRP into each well. Add 1 μl of compound to be tested and incubate at room temperature for 20 minutes. After 20 minutes, add 5 μl of assay buffer containing 6 nM GK-fluorescein. […] Incubate in a dark room for 2 hours at room temperature. After 2 hours read the plate using an Envision plate reader (Perkin Elmer, Waltham Mass.).

[2] = molecular target: T2, GKRP (Glucokinase Regulatory Protein) with human His-hepatic GK (Homo sapiens, UniProt Q14397); assay: biochemical
T2 sequence (Q14397 1-625): T1 sequence (Q14397 1-625)
Method: GKRP LC MS/MS-2 Biochemical Assay
This assay is used to directly measure the formation of ^13C-glucose-6-phosphate from ^13C-glucose by LC MS/MS. Begin by preparing the following solutions: Compound Buffer (CB): 50 mM Tris, pH 7.5/4 mM MgCl2/6% DMSO/fresh 10 mM DTT from 1M frozen stock. Enzyme Buffer (EB): 50 mM Tris, pH 7.5/4 mM MgCl2/6% DMSO/fresh 0.1% BSA/fresh 0.01% Brij-35 (10% BSA and 1% Brij-35 stock). GK (Glucokinase) Working Stock (5×): Dilute human His-hepatic GK to 30 nM in EB buffer. […] After 30 minutes add 10 μl of GK Working Stock (5×). Re-seal the plate and incubate for another 30 minutes at room temperature while mixing. After the second 30 minutes, stop the reaction by the addition of 50 μl of 100% acetonitrile, seal, and mix for 5-10 minutes. Run 10 μl of this sample through the LC MS/MS (API 3200, Applied Biosystems, Carlsbad, Calif.).

[3] = avi-tagged GKRP, GK-fluorescein, AlphaScreen beads, read-out: GK-GKRP IC50 (Binding)
[4] = 13C-glucose-6-phosphate formation, 280 nM GKRP (10×), 30 nM GK (5×), read-out: GK-GKRP EC50 (LC MS/MS-2)
[5] = GK-GKRP EC50 (LC MS/MS-2), 13C-glucose-6-phosphate formation, 280 nM GKRP (10×), 30 nM GK (5×)

| SMILES | IC50 [1, 3] | EC50 [2, 4] | other results |
| --- | --- | --- | --- |
| CCC1COCCN1C[C@H]1CN(S(=O)(=O)c2cccs2)CCN1c1ccc(C(C)(O)C(F)(F)F)cc1 (mixture of isomers) [Example 143, 2-(4-((2S)-2-((3-ethyl-4-morpholinyl)methyl)-4-(2-thiophenylsulfonyl)-1-piperazinyl)phenyl)-1,1,1-trifluoro-2-propanol] | 80 nM | 36 nM |  |
| CC(O)(c1ccc(N2CCN(S(=O)(=O)c3cccs3)C[C@@H]2CN2CCC(=O)CC2)cc1)C(F)(F)F (mixture of isomers) [Example 144, 1-(((2S)-4-(2-thiophenylsulfonyl)-1-(4-(2,2,2-trifluoro-1-hydroxy-1-methylethyl)phenyl)-2-piperazinyl)methyl)-4-piperidinone] | 564 nM | 831 nM |  |
| CC(O)(c1ccc(N2CCN(S(=O)(=O)c3cccs3)C[C@@H]2CN2CCC[C@H](O)C2)cc1)C(F)(F)F (mixture of isomers) [Example 145, (3S)-1-(((2S)-4-(2-thiophenylsulfonyl)-1-(4-(2,2,2-trifluoro-1-hydroxy-1-methylethyl)phenyl)-2-piperazinyl)methyl)-3-piperidinol] | 628 nM | 880 nM |  |
| CC1(C)C(=O)NCCN1C[C@H]1CN(S(=O)(=O)c2cccs2)CCN1c1ccc(C(C)(O)C(F)(F)F)cc1 (mixture of isomers) [Example 180, 3,3-dimethyl-4-(((2S)-4-(2-thiophenylsulfonyl)-1-(4-(2,2,2-trifluoro-1-hydroxy-1-methylethyl)phenyl)-2-piperazinyl)methyl)-2-piperazinone] | 22 nM | 51 nM |  |
| C[C@H]1C(=O)NCCN1C[C@H]1CN(S(=O)(=O)c2cccs2)CCN1c1ccc(C(C)(O)C(F)(F)F)cc1 (mixture of isomers) [Example 182, (3S)-3-methyl-4-(((2S)-4-(2-thiophenylsulfonyl)-1-(4-(2,2,2-trifluoro-1-hydroxy-1-methylethyl)phenyl)-2-piperazinyl)methyl)-2-piperazinone] | 46 nM | 69 nM |  |
| CC1CNC(=O)CN1C[C@H]1CN(S(=O)(=O)c2cccs2)CCN1c1ccc(C(C)(O)C(F)(F)F)cc1 (mixture of isomers) [Example 183, 5-methyl-4-(((2S)-4-(2-thiophenylsulfonyl)-1-(4-(2,2,2-trifluoro-1-hydroxy-1-methylethyl)phenyl)-2-piperazinyl)methyl)-2-piperazinone] | 171 nM | 287 nM |  |
| CC(O)(c1ccc(N2CCN(S(=O)(=O)c3cccs3)C[C@@H]2CSc2ccccc2)cc1)C(F)(F)F (mixture of isomers) [Example 186, 1,1,1-trifluoro-2-(4-((2R)-2-((phenylsulfanyl)methyl)-4-(2-thiophenylsulfonyl)-1-piperazinyl)phenyl)-2-propanol] |  |  | IC50 ([1]; read-out: GK-GKRP IC50 (Binding)): 14 nM; EC50 ([2]; read-out: GK-GKRP EC50 (LC MS/MS-2)): 24 nM |
| CC(O)(c1ccc(N2CCN(S(=O)(=O)c3cccs3)C[C@@H]2CSc2cccc(F)c2)cc1)C(F)(F)F (mixture of isomers) [Example 188, 1,1,1-trifluoro-2-(4-((2R)-2-(((3-fluorophenyl)sulfanyl)methyl)-4-(2-thiophenylsulfonyl)-1-piperazinyl)phenyl)-2-propanol] | 112 nM | 43 nM |  |
| CC(O)(c1ccc(N2CCN(S(=O)(=O)c3cccs3)C[C@@H]2CSc2ccc(F)cc2)cc1)C(F)(F)F (mixture of isomers) [Example 190, 1,1,1-trifluoro-2-(4-((2R)-2-(((4-fluorophenyl)sulfanyl)methyl)-4-(2-thiophenylsulfonyl)-1-piperazinyl)phenyl)-2-propanol] | 30 nM | 15 nM |  |
| CC(O)(c1ccc(N2CCN(S(=O)(=O)c3cccs3)C[C@@H]2CNS(=O)(=O)c2ccccc2)cc1)C(F)(F)F (mixture of isomers) [Example 193, N-(((2S)-4-(2-thiophenylsulfonyl)-1-(4-(2,2,2-trifluoro-1-hydroxy-1-methylethyl)phenyl)-2-piperazinyl)methyl)benzenesulfonamide] | 284 nM |  | EC50 [2, 5]: 374 nM |
| CC(C)N(C[C@H]1CN(S(=O)(=O)c2cccs2)CCN1c1ccc(C(C)(O)C(F)(F)F)cc1)C(C)C (mixture of isomers) [Example 194, 2-(4-((2S)-2-((bis(1-methylethyl)amino)methyl)-4-(2-thiophenylsulfonyl)-1-piperazinyl)phenyl)-1,1,1-trifluoro-2-propanol] | 205 nM |  | EC50 [2, 5]: 179 nM |
| CC(=O)N(C[C@H]1CN(S(=O)(=O)c2cccs2)CCN1c1ccc(C(C)(O)C(F)(F)F)cc1)C(C)C (mixture of isomers) [Example 196, N-(1-methylethyl)-N-(((2S)-4-(2-thiophenylsulfonyl)-1-(4-(2,2,2-trifluoro-1-hydroxy-1-methylethyl)phenyl)-2-piperazinyl)methyl)acetamide] | 466 nM | 391 nM |  |
| CC(C)N(C[C@H]1CN(S(=O)(=O)c2cccs2)CCN1c1ccc(C(C)(O)C(F)(F)F)cc1)S(=O)(=O)c1ccccc1 (mixture of isomers) [Example 197, N-(1-methylethyl)-N-(((2R)-4-(2-thiophenylsulfonyl)-1-(4-(2,2,2-trifluoro-1-hydroxy-1-methylethyl)phenyl)-2-piperazinyl)methyl)benzenesulfonamide] | 215 nM | 80 nM |  |
| CC(C)N(C[C@H]1CN(S(=O)(=O)c2cccs2)CCN1c1ccc(C(C)(O)C(F)(F)F)cc1)S(=O)(=O)c1cccnc1 (mixture of isomers) [Example 198, N-(1-methylethyl)-N-(((2R)-4-(2-thiophenylsulfonyl)-1-(4-(2,2,2-trifluoro-1-hydroxy-1-methylethyl)phenyl)-2-piperazinyl)methyl)-3-pyridinesulfonamide] | 108 nM | 177 nM |  |
| CC(O)(c1ccc(N2CCN(S(=O)(=O)c3cccs3)C[C@@H]2CN(C2CC2)S(C)(=O)=O)cc1)C(F)(F)F (mixture of isomers) [Example 200, N-cyclopropyl-N-(((2R)-4-(2-thiophenylsulfonyl)-1-(4-(2,2,2-trifluoro-1-hydroxy-1-methylethyl)phenyl)-2-piperazinyl)methyl)methanesulfonamide] | 26 nM | 39 nM |  |
| CC(O)(c1ccc(N2CCN(S(=O)(=O)c3cccs3)C[C@@H]2CNc2ccccc2)cc1)C(F)(F)F (mixture of isomers) [Example 203, 1,1,1-trifluoro-2-(4-((2S)-2-((phenylamino)methyl)-4-(2-thiophenylsulfonyl)-1-piperazinyl)phenyl)-2-propanol] |  |  | IC50 ([1]; GK-GKRP IC50 (Binding)): 278 nM; EC50 ([2]; GK-GKRP EC50 (LC MS/MS-2)): 146 nM |
| CC(O)(c1ccc(N2CCN(S(=O)(=O)c3cccs3)C[C@@H]2CN(c2ccccc2)S(C)(=O)=O)cc1)C(F)(F)F (mixture of isomers) [Example 204, N-phenyl-N-(((2R)-4-(2-thiophenylsulfonyl)-1-(4-(2,2,2-trifluoro-1-hydroxy-1-methylethyl)phenyl)-2-piperazinyl)methyl)methanesulfonamide] | 4 nM | 32 nM |  |
| CC(O)(c1ccc(N2CCN(S(=O)(=O)c3cccs3)C[C@@H]2CN(C2COC2)C2COC2)cc1)C(F)(F)F (mixture of isomers) [Example 205, 2-(4-((2S)-2-((di-3-oxetanylamino)methyl)-4-(2-thiophenylsulfonyl)-1-piperazinyl)phenyl)-1,1,1-trifluoro-2-propanol] | 435 nM | 480 nM |  |
